Data published in the kinase profiling compilation of Christmann-Franck et al. (2016).
“And” between values parts separate entries of the source, which are not always exact repeats. Identical values can stand only once.

Tests used:
Experiment in all cases: radiometric filter-binding kinase assay, Kinase HotSpot
Conditions in all cases: compound 0.5 µM; ATP 10 µM
[1] = target: JAK1 JH1 catalytic (human) (UniProt P23458)
MAP3K3 (human) = MAP3K3 (human) (UniProt Q99759)
PRKG1 (human) = PRKG1 (human) (UniProt Q13976)
Sequence of PRKG1 (human) (Q13976 whole entry, looked up): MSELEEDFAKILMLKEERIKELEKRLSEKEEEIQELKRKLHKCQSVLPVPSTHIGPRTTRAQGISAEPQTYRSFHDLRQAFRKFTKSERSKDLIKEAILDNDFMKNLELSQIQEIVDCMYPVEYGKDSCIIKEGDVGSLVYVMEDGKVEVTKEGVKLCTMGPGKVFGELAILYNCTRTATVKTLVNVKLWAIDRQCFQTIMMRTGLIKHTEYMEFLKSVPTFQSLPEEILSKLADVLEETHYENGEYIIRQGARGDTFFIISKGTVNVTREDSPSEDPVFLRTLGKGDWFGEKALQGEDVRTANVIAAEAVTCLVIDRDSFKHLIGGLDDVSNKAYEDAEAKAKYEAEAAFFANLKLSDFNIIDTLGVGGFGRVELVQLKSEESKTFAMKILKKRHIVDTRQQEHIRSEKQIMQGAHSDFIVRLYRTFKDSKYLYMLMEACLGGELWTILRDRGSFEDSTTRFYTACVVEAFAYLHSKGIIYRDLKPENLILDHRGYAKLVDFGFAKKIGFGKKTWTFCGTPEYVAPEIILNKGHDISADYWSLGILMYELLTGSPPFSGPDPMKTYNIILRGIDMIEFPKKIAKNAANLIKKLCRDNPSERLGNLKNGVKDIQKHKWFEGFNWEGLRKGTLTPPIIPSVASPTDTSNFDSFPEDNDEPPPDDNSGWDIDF

OXSR1 (human) = OXSR1 (human) (UniProt O95747)
Sequence of OXSR1 (human) (O95747 whole entry, looked up): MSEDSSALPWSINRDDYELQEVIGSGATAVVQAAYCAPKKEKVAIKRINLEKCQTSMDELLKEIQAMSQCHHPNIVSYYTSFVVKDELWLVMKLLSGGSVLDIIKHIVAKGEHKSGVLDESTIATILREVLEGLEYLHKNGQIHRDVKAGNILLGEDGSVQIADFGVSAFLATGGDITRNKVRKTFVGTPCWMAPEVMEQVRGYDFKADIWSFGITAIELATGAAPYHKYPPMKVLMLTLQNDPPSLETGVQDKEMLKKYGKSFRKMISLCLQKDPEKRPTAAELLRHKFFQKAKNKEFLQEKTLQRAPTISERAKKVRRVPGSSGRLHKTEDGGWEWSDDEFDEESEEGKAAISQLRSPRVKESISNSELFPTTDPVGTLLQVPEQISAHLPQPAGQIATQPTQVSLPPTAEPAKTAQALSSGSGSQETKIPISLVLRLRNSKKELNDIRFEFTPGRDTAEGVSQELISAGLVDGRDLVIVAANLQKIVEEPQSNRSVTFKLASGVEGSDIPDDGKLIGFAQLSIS

EPHB4 (human) = EPHB4 (human) (UniProt P54760)
EPHA6 (human) = EPHA6 (human) (UniProt Q9UF33)
ABL2 (human) = ABL2 (human) (UniProt P42684)
MAP4K2 (human) = MAP4K2 (human) (UniProt Q12851)
TEK (human) = TEK (human) (UniProt Q02763)
CAMKK2 (human) = CAMKK2 (human) (UniProt Q96RR4)
NEK2 (human) = NEK2 (human) (UniProt P51955)
BMX (human) = BMX (human) (UniProt P51813)
ULK3 (human) = ULK3 (human) (UniProt Q6PHR2)
Sequence of ULK3 (human) (Q6PHR2 whole entry, looked up): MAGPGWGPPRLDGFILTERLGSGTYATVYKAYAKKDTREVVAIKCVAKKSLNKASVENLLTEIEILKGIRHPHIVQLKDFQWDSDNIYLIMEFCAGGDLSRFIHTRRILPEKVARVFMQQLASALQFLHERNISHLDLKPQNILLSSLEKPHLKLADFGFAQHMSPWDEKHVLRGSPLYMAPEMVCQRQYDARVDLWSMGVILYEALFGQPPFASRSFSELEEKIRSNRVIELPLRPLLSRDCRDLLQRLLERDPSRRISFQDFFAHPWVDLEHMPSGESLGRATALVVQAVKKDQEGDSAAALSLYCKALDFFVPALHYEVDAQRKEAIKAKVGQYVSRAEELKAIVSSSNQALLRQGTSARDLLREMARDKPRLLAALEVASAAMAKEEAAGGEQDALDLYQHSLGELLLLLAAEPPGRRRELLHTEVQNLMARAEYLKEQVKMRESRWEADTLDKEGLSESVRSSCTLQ

PRKG2 (human) = PRKG2 (human) (UniProt Q13237)
BRAF (human) = BRAF (human) (UniProt P15056)
CDK4 CCND1 (human) = CDK4 CCND1 (human) (UniProt P24385+P11802)
Sequence of CDK4 CCND1 (human) (P11802 whole entry, looked up): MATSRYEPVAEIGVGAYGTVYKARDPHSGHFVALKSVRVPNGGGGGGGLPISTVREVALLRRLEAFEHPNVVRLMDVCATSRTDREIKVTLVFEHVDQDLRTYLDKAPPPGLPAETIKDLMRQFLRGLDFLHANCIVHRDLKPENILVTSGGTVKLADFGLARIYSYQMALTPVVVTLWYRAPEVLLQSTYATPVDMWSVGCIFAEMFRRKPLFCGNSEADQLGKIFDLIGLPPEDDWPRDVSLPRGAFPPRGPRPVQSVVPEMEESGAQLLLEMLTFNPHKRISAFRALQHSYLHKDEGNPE
Sequence of CDK4 CCND1 (human) (P24385 whole entry, looked up): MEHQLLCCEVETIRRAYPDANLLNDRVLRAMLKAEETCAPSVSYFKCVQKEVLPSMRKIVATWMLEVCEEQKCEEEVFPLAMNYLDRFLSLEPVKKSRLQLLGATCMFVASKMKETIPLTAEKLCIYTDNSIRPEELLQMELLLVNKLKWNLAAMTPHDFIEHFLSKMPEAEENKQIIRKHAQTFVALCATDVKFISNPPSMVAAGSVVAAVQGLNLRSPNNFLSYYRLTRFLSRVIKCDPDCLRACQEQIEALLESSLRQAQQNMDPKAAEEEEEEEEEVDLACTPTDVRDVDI

DYRK1A (human) = DYRK1A (human) (UniProt Q13627)
PRKCI (human) = PRKCI (human) (UniProt P41743)
IGF1R (human) = IGF1R (human) (UniProt P08069)
AXL (human) = AXL (human) (UniProt P30530)
Sequence of AXL (human) (P30530 whole entry, looked up): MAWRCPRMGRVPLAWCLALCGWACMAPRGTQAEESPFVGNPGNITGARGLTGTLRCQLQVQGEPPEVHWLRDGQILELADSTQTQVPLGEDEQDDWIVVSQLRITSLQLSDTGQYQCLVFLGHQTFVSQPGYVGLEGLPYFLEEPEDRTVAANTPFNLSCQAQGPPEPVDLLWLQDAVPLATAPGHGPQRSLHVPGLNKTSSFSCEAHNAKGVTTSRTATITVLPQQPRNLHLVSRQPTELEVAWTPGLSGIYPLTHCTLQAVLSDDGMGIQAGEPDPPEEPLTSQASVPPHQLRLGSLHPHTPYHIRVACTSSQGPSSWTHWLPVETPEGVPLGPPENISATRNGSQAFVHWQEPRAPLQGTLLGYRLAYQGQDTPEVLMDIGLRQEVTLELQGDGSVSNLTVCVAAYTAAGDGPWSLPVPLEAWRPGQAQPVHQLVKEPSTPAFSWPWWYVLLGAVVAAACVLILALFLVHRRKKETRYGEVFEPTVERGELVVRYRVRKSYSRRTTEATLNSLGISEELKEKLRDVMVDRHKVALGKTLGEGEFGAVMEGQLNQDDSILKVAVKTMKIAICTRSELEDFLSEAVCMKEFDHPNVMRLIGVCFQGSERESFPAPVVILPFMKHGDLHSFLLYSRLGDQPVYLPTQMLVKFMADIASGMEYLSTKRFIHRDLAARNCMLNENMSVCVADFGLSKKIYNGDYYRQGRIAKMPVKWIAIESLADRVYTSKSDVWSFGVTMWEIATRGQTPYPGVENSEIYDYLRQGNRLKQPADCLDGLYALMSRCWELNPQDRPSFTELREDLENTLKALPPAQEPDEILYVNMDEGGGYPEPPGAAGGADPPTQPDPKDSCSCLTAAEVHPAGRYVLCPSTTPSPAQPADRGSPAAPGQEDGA

MARK4 (human) = MARK4 (human) (UniProt Q96L34)
Sequence of MARK4 (human) (Q96L34 whole entry, looked up): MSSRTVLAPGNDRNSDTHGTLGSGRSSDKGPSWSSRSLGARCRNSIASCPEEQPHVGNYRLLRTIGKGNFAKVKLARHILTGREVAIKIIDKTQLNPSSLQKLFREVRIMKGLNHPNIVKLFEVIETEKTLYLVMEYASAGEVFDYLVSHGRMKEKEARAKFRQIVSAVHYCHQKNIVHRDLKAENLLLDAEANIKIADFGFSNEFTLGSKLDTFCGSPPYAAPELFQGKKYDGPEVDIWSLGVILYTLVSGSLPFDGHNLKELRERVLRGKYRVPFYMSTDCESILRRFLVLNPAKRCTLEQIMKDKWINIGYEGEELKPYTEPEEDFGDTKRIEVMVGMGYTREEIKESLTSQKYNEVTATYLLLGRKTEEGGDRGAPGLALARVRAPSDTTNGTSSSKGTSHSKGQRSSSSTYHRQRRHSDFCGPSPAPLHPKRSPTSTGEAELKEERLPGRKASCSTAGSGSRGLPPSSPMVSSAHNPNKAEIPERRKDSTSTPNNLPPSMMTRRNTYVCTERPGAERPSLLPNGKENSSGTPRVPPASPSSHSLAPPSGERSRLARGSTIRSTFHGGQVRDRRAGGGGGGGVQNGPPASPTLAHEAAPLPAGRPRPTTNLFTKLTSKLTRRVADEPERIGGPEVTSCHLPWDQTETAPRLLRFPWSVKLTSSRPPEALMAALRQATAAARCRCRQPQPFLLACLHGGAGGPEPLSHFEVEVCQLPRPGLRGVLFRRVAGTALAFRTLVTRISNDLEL

PBK (human) = PBK (human) (UniProt Q96KB5)
GSG2 (human) = GSG2 (human) (UniProt Q8TF76)
TLK2 (human) = TLK2 (human) (UniProt Q86UE8)
PRKCE (human) = PRKCE (human) (UniProt Q02156)
ULK2 (human) = ULK2 (human) (UniProt Q8IYT8)
CLK1 (human) = CLK1 (human) (UniProt P49759)
MYO3B (human) = MYO3B (human) (UniProt Q8WXR4)
PRKX (human) = PRKX (human) (UniProt P51817)
Sequence of PRKX (human) (P51817 whole entry, looked up): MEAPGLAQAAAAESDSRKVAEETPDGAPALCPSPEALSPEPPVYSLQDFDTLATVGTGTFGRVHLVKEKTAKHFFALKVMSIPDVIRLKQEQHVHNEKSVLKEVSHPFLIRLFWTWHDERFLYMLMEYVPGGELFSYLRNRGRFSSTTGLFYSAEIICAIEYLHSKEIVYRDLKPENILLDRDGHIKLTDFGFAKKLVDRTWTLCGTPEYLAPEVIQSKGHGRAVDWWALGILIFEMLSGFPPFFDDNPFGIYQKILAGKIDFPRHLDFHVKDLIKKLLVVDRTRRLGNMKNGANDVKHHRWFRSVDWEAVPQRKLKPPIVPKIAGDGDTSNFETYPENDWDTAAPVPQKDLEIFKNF

CSNK1D (human) = CSNK1D (human) (UniProt P48730)
JAK2 JH1 JH2 (human) = JAK2 JH1 JH2 (human) (UniProt O60674)
MST1R (human) = MST1R (human) (UniProt Q04912)
MAPK11 (human) = MAPK11 (human) (UniProt Q15759)
DYRK2 (human) = DYRK2 (human) (UniProt Q92630)
CHUK (human) = CHUK (human) (UniProt O15111)
PRKACG (human) = PRKACG (human) (UniProt P22612)
CHEK2 (human) = CHEK2 (human) (UniProt O96017)
EPHB2 (human) = EPHB2 (human) (UniProt P29323)
STK38 (human) = STK38 (human) (UniProt Q15208)
CSF1R (human) = CSF1R (human) (UniProt P07333)
PAK1 (human) = PAK1 (human) (UniProt Q13153)
Sequence of PAK1 (human) (Q13153 whole entry, looked up): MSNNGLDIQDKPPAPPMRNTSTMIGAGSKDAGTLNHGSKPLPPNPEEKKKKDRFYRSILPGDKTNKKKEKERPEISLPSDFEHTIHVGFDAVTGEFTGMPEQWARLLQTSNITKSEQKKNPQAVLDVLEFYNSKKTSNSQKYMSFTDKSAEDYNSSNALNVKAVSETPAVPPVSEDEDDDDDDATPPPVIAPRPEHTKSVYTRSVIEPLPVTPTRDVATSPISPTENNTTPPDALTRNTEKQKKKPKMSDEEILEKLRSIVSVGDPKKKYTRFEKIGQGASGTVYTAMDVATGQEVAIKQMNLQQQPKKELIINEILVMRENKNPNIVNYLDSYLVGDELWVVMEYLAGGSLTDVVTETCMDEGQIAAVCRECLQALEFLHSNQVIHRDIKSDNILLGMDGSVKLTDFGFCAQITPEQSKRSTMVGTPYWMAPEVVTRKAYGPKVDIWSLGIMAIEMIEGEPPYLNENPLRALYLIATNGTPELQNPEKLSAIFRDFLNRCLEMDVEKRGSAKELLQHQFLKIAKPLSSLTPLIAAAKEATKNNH

TEC (human) = TEC (human) (UniProt P42680)

O=C(CCCc1ccc(-c2ccccc2F)cc1)Nc1ccc(O)cc1
residual activity [1]: 98.2%
residual activity (MAP3K3 (human)): 108%
residual activity (PRKG1 (human)): 95.5% and 99.9%
residual activity (OXSR1 (human)): 102%
residual activity (EPHB4 (human)): 106%
residual activity (EPHA6 (human)): 89.6%
residual activity (ABL2 (human)): 95.3%
residual activity (MAP4K2 (human)): 104%
residual activity (TEK (human)): 101%
residual activity (CAMKK2 (human)): 86.6%
residual activity (NEK2 (human)): 90.6%
residual activity (BMX (human)): 99.6%
residual activity (ULK3 (human)): 103%
residual activity (PRKG2 (human)): 102%
residual activity (BRAF (human)): 93%
residual activity (CDK4 CCND1 (human)): 102%
residual activity (DYRK1A (human)): 106%
residual activity (PRKCI (human)): 95.5%
residual activity (IGF1R (human)): 106%
residual activity (AXL (human)): 91.4%
residual activity (MARK4 (human)): 124%
residual activity (PBK (human)): 90.8%
residual activity (GSG2 (human)): 94.7%
residual activity (TLK2 (human)): 84.1%
residual activity (PRKCE (human)): 103%
residual activity (ULK2 (human)): 116%
residual activity (CLK1 (human)): 101%
residual activity (MYO3B (human)): 96.3%
residual activity (PRKX (human)): 106%
residual activity (CSNK1D (human)): 102%
residual activity (JAK2 JH1 JH2 (human)): 98.5%
residual activity (MST1R (human)): 106%
residual activity (MAPK11 (human)): 79.7%
residual activity (DYRK2 (human)): 91.8%
residual activity (CHUK (human)): 97.3%
residual activity (PRKACG (human)): 93.5%
residual activity (CHEK2 (human)): 101%
residual activity (EPHB2 (human)): 98.5%
residual activity (STK38 (human)): 109%
residual activity (CSF1R (human)): 104%
residual activity (PAK1 (human)): 95.4%
residual activity (TEC (human)): 86%

O=C1NC(=O)/C(=C\c2ccc3nccnc3c2)S1
residual activity [1]: 103%
residual activity (MAP3K3 (human)): 100%
residual activity (PRKG1 (human)): 113% and 98.3%
residual activity (OXSR1 (human)): 98.4%
residual activity (EPHB4 (human)): 101%
residual activity (EPHA6 (human)): 82.4%
residual activity (ABL2 (human)): 96.8%
residual activity (MAP4K2 (human)): 86.1%
residual activity (TEK (human)): 89.5%
residual activity (CAMKK2 (human)): 72.9%
residual activity (NEK2 (human)): 92.2%
residual activity (BMX (human)): 98.6%
residual activity (ULK3 (human)): 102%
residual activity (PRKG2 (human)): 106%
residual activity (BRAF (human)): 95.1%
residual activity (CDK4 CCND1 (human)): 94.4%
residual activity (DYRK1A (human)): 21.8%
residual activity (PRKCI (human)): 98.6%
residual activity (IGF1R (human)): 92%
residual activity (AXL (human)): 112%
residual activity (MARK4 (human)): 89.9%
residual activity (PBK (human)): 93%
residual activity (GSG2 (human)): 38.8%
residual activity (TLK2 (human)): 95.2%
residual activity (PRKCE (human)): 101%
residual activity (ULK2 (human)): 104%
residual activity (CLK1 (human)): 80.1%
residual activity (MYO3B (human)): 83.8%
residual activity (PRKX (human)): 89.2%
residual activity (CSNK1D (human)): 96.3%
residual activity (JAK2 JH1 JH2 (human)): 97.4%
residual activity (MST1R (human)): 97.8%
residual activity (MAPK11 (human)): 99.2%
residual activity (DYRK2 (human)): 39.8%
residual activity (CHUK (human)): 86.7%
residual activity (PRKACG (human)): 99.6%
residual activity (CHEK2 (human)): 90.3%
residual activity (EPHB2 (human)): 94.7%
residual activity (STK38 (human)): 99.6%
residual activity (CSF1R (human)): 110%
residual activity (PAK1 (human)): 96%
residual activity (TEC (human)): 117%
